According to patent US20090269354A1, “QUINAZOLINE DERIVATIVES AND METHODS OF TREATMENT” (Concert Pharmaceuticals, Inc., priority 2008, published 2009):

How the values were obtained:
[1] = Compound stability in human liver microsomes (Example 15); assay type: in vitro ADME; details: 1 μM test compound; for half-life at 1 μM: pH 7.4, pooled human liver microsomes 0.5 mg/mL, 2 mM NADPH, 37° C., 0-30 min; for % Difference (t1/2 compared to erlotinib): [(deuterated species) − (nondeuterated species)](100)/(nondeuterated species), reference erlotinib, 0.5 mg/mL HLM
Procedure: Evaluation of Compound Stability in Human Liver Microsomes. […] The metabolic stability of compounds of the invention was tested using pooled liver microsomal incubations. Samples of the test compounds, exposed to pooled human liver microsomes, were analyzed using HPLC-MS (or MS/MS) detection. For determining metabolic stability, multiple reaction monitoring (MRM) was used to measure the disappearance of the test compounds. Experimental Procedures. Human liver microsomes (“HLM”; 20 mg/mL) were obtained from Xenotech, LLC (Lenexa, Kans.). β-nicotinamide adenine dinucleotide phosphate, reduced form (NADPH), magnesium chloride (MgCl2), and dimethyl sulfoxide (DMSO) were purchased from Sigma-Aldrich. Stock solutions of test compounds (7.5 mM) were prepared in DMSO. The 7.5 mM stock solutions were diluted to 50 μM in acetonitrile (ACN). The 20 mg/mL human liver microsomes were diluted to 0.625 mg/mL in 0.1 M potassium phosphate buffer, pH 7.4, containing 3 mM MgCl2. The diluted microsomes (375 μL) were added to wells of a 96-well deep-well polypropylene plate in triplicate. A 10 μL aliquot of the 50 μM test compound solution was added to the microsomes and the mixture was pre-warmed for 10 minutes. Reactions were initiated by addition of 125 μL of pre-warmed NADPH solution (8 mM NADPH in 0.1M potassium phosphate buffer, pH 7.4, containing 3 mM MgCl2). The final reaction volume was 0.5 mL and contained 0.5 mg/mL human liver microsomes, 1 μM test compound, and 2 mM NADPH in 0.1 M potassium phosphate buffer, pH 7.4, and 3 mM MgCl2. The reaction mixtures were incubated at 37° C., and 50 μL aliquots were removed at 0, 5, 10, 20, and 30 minutes and added to shallow-well 96-well plates which contained 50 μL of ice-cold ACN with internal standard to stop the reactions. The plates were stored at 4° C. for 20 minutes after which 100 μL of water was added to the wells of the plate before centrifugation to pellet precipitated proteins. Supernatants were transferred to another 96-well plate and analyzed for amounts of parent remaining by LC-MS/MS using an Applied Bio-systems API 4000 mass spectrometer. 7-ethoxycoumarin was used as a positive control. The in vitro t1/2 s for test compounds were calculated from the slopes of the linear regression of % parent remaining (ln) vs incubation time relationship. […] Data analysis was performed using Microsoft Excel Software.

[2] = Compound stability in human liver microsomes (Example 16, design as Example 15); assay type: in vitro ADME; details: 1 μM test compound; for half-life at 1 μM: pooled human liver microsomes, pH 7.4, human liver microsomes 0.5 mg/mL; for % Difference with respect to non-deuterated analog: t1/2 vs 105-H or 106-H; for % Difference with respect to non-deuterated analog / % Difference with respect to non-deuterated Erlotinib: 0.5 mg/mL HLM; for % Difference with respect to non-deuterated Erlotinib: t1/2 vs erlotinib
Procedure: The metabolic stability of compounds of the invention was tested using pooled liver microsomal incubations. Samples of the test compounds, exposed to pooled human liver microsomes, were analyzed using HPLC-MS (or MS/MS) detection. For determining metabolic stability, multiple reaction monitoring (MRM) was used to measure the disappearance of the test compounds.
Experimental Procedures. Human liver microsomes (“HLM”; 20 mg/mL) were obtained from Xenotech, LLC (Lenexa, Kans.). β-nicotinamide adenine dinucleotide phosphate, reduced form (NADPH), magnesium chloride (MgCl2), and dimethyl sulfoxide (DMSO) were purchased from Sigma-Aldrich.
Stock solutions of test compounds (7.5 mM) were prepared in DMSO. The 7.5 mM stock solutions were diluted to 50 μM in acetonitrile (ACN). The 20 mg/mL human liver microsomes were diluted to 0.625 mg/mL in 0.1 M potassium phosphate buffer, pH 7.4, containing 3 mM MgCl2. The diluted microsomes (375 μL) were added to wells of a 96-well deep-well polypropylene plate in triplicate. A 10 μL aliquot of the 50 μM test compound solution was added to the microsomes and the mixture was pre-warmed for 10 minutes. Reactions were initiated by addition of 125 μL of pre-warmed NADPH solution (8 mM NADPH in 0.1M potassium phosphate buffer, pH 7.4, containing 3 mM MgCl2). The final reaction volume was 0.5 mL and contained 0.5 mg/mL human liver microsomes, 1 μM test compound, and 2 mM NADPH in 0.1 M potassium phosphate buffer, pH 7.4, and 3 mM MgCl2. The reaction mixtures were incubated at 37° C., and 50 μL aliquots were removed at 0, 5, 10, 20, and 30 minutes and added to shallow-well 96-well plates which contained 50 μL of ice-cold ACN with internal standard to stop the reactions. The plates were stored at 4° C. for 20 minutes after which 100 μL of water was added to the wells of the plate before centrifugation to pellet precipitated proteins. Supernatants were transferred to another 96-well plate and analyzed for amounts of parent remaining by LC-MS/MS using an Applied Bio-systems API 4000 mass spectrometer. 7-ethoxycoumarin was used as a positive control.
The in vitro t1/2 s for test compounds were calculated from the slopes of the linear regression of % parent remaining (ln) vs incubation time relationship.
in vitro t1/2=0.693/k, where k=−[slope of linear regression of % parent remaining(ln) vs incubation time]. Data analysis was performed using Microsoft Excel Software.
Evaluation of Compound Stability in Human Liver Microsomes.

| Compound | half-life at 1 μM [1] [h] | half-life at 1 μM [2] [h] | % Difference with respect to non-deuterated analog [2] [%] | % Difference with respect to non-deuterated Erlotinib [2] [%] | % Difference (t1/2 compared to erlotinib) [1] [%] |
| --- | --- | --- | --- | --- | --- |
| [2H]C([2H])([2H])OC([2H])([2H])COc1cc2ncnc(Nc3cccc(Cl)c3)c2cc1OCC([2H])([2H])OC([2H])([2H])[2H] [Compound 106, N-(3-Chlorophenyl)-6,7-bis(2-(methoxy-d3)-2,2-d2-ethoxy)quinazolin-4-amine] | – | 1.54 | 22 | 55 | – |
| [2H]C([2H])([2H])OC([2H])([2H])C([2H])([2H])Oc1cc2ncnc(Nc3ccc(F)c(C#C)c3)c2cc1OC([2H])([2H])C([2H])([2H])OC([2H])([2H])[2H] [Compound 121, N-(3-Ethynyl-4-fluorophenyl)-6,7-bis(2-(methoxy-d3)ethoxy-d4)quinazolin-4-amine] | 0.847 | – | – | – | −12 |
| [2H]C([2H])([2H])OC([2H])([2H])C([2H])([2H])Oc1cc2ncnc(Nc3cccc(C#C)c3)c2cc1OC([2H])([2H])C([2H])([2H])OC([2H])([2H])[2H] [Compound 120, N-(3-Ethynylphenyl)-6,7-bis(2-(methoxy-d3)ethoxy-d4)quinazolin-4-amine] | 1.14 | – | – | – | – |
| [2H]C([2H])([2H])OC([2H])([2H])COc1cc2ncnc(Nc3cccc(Br)c3)c2cc1OCC([2H])([2H])OC([2H])([2H])[2H] [Compound 105, N-(3-Bromophenyl)-6,7-bis(2-(methoxy-d3)-2,2-d2-ethoxy)quinazolin-4-amine] | – | 1.18 | 35 | 19 | – |

Results, then the compound that gave them:

| half-life at 1 μM [1] [h] | half-life at 1 μM [2] [h] | % Difference with respect to non-deuterated analog [2] [%] | % Difference with respect to non-deuterated Erlotinib [2] [%] | % Difference (t1/2 compared to erlotinib) [1] [%] | Compound |
| --- | --- | --- | --- | --- | --- |
| 0.963 | 0.997 | – | – | – | C#Cc1cccc(Nc2ncnc3cc(OCCOC)c(OCCOC)cc23)c1 [Erlotinib, [6,7-Bis-(2-methoxy-ethoxy)-quinazolin-4-yl]-(3-ethynyl-phenyl)-amine, reference compound] |
| 0.785 | – | – | – | −19 | [2H]C([2H])([2H])OC([2H])([2H])COc1cc2ncnc(Nc3ccc(F)c(C#C)c3)c2cc1OCC([2H])([2H])OC([2H])([2H])[2H] [Compound 135, N-(3-Ethynyl-4-fluorophenyl)-6,7-bis(2-(methoxy-d3)-2,2-d2-ethoxy)quinazolin-4-amine] |
| 1.48 | – | – | – | – | [2H]C([2H])([2H])OC([2H])([2H])COc1cc2ncnc(Nc3ccc(O)c(C#C)c3)c2cc1OCC([2H])([2H])OC([2H])([2H])[2H] [Compound 138, 4-(6,7-Bis(2-(methoxy-d3)-2,2-d2-ethoxy)quinazolin-4-ylamino)-2-ethynylphenol] |
